# Source: ChEMBL document CHEMBL5608163, “Structure modification of anoplin for fighting resistant bacteria” (Eur J Med Chem, 2024)
# Bridge positions count the residues as written; N and C are the ends. Peptide text beside a SMILES is read from it. I, II: the chains in the order shown. * marks the point of attachment. Lauroyl = CCCCCCCCCCCC(=O)*; Decanoyl = CCCCCCCCCC(=O)*; Octanoyl = CCCCCCCC(=O)*; Hexanoyl = CCCCCC(=O)*; Butyryl = CCCC(=O)*
# Assays:
# Erythrocyte = test: Hemolytic activity in human erythrocyte incubated for 70 mins by absorbance based assay; assay type: toxicity, cell-based; details: 1.167 h
# Pseudomonas aeruginosa = test: Antibacterial activity against Pseudomonas aeruginosa ATCC 27853 assessed as reduction in bacterial cell growth incubated for 16 to 24 hrs by CLSI-protocol based Mueller-Hinton Broth micro-dilution method; assay type: functional; details: time 16-24 hrs
# Escherichia coli = test: Antibacterial activity against Escherichia coli ATCC 25922 assessed as reduction in bacterial cell growth incubated for 16 to 24 hrs by CLSI-protocol based Mueller-Hinton Broth micro-dilution method; assay type: functional; details: time 16-24 hrs
# Staphylococcus aureus = test: Antibacterial activity against Staphylococcus aureus ATCC 25923 assessed as reduction in bacterial cell growth incubated for 16 to 24 hrs by CLSI-protocol based Mueller-Hinton Broth micro-dilution method; assay type: functional; details: time 16-24 hrs
# Klebsiella pneumoniae = test: Antibacterial activity against Klebsiella pneumoniae ATCC 700603 assessed as reduction in bacterial cell growth incubated for 16 to 24 hrs by CLSI-protocol based Mueller-Hinton Broth micro-dilution method; assay type: functional; details: time 16-24 hrs
# Bacillus subtilis = test: Antibacterial activity against Bacillus subtilis ATCC 23857 assessed as reduction in bacterial cell growth incubated for 16 to 24 hrs by CLSI-protocol based Mueller-Hinton Broth micro-dilution method; assay type: functional; details: time 16-24 hrs
SMILES,HC10 (Erythrocyte) [µM],MIC (Pseudomonas aeruginosa) [µM],MIC (Escherichia coli) [µM],MIC (Staphylococcus aureus) [µM],MIC (Klebsiella pneumoniae) [µM],MIC (Bacillus subtilis) [µM]
"CCCCCCCCCCCC(=O)NCC(=O)N[C@@H](CC(C)C)C(=O)N[C@@H](CC(C)C)C(=O)N[C@@H](CCCCN)C(=O)N[C@@H](CCCNC(=N)N)C(=O)N[C@H](C(=O)N[C@@H](CCCCN)C(=O)N[C@H](C(=O)N[C@@H](CC(C)C)C(=O)N[C@@H](CC(C)C)C(=O)NCCCC[C@H](NC(=O)[C@H](CCCCNC(=O)[C@H](CC(C)C)NC(=O)[C@H](CC(C)C)NC(=O)[C@@H](NC(=O)[C@H](CCCCN)NC(=O)[C@@H](NC(=O)[C@H](CCCNC(=N)N)NC(=O)[C@H](CCCCN)NC(=O)[C@H](CC(C)C)NC(=O)[C@H](CC(C)C)NC(=O)CNC(=O)CCCCCCCCCCC)[C@@H](C)CC)[C@@H](C)O)NC(=O)[C@H](CC(C)C)NC(=O)[C@H](CC(C)C)NC(=O)[C@@H](NC(=O)[C@H](CCCCN)NC(=O)[C@@H](NC(=O)[C@H](CCCNC(=N)N)NC(=O)[C@H](CCCCN)NC(=O)[C@H](CC(C)C)NC(=O)[C@H](CC(C)C)NC(=O)CNC(=O)CCCCCCCCCCC)[C@@H](C)CC)[C@@H](C)O)C(N)=O)[C@@H](C)O)[C@@H](C)CC (I: Lauroyl-GLLKRIKTLLKK-NH2 / II: Lauroyl-GLLKRIKTLL / III: Lauroyl-GLLKRIKTLL; amide I:11-III:C, I:12-II:C) [listing 1 of 2 here]",103.52,–,–,–,–,–
"CCCCCCCCCC(=O)NCC(=O)N[C@@H](CC(C)C)C(=O)N[C@@H](CC(C)C)C(=O)N[C@@H](CCCCN)C(=O)N[C@@H](CCCNC(=N)N)C(=O)N[C@H](C(=O)N[C@@H](CCCCN)C(=O)N[C@H](C(=O)N[C@@H](CC(C)C)C(=O)N[C@@H](CC(C)C)C(=O)NCCCC[C@H](NC(=O)[C@H](CCCCNC(=O)[C@H](CC(C)C)NC(=O)[C@H](CC(C)C)NC(=O)[C@@H](NC(=O)[C@H](CCCCN)NC(=O)[C@@H](NC(=O)[C@H](CCCNC(=N)N)NC(=O)[C@H](CCCCN)NC(=O)[C@H](CC(C)C)NC(=O)[C@H](CC(C)C)NC(=O)CNC(=O)CCCCCCCCC)[C@@H](C)CC)[C@@H](C)O)NC(=O)[C@H](CC(C)C)NC(=O)[C@H](CC(C)C)NC(=O)[C@@H](NC(=O)[C@H](CCCCN)NC(=O)[C@@H](NC(=O)[C@H](CCCNC(=N)N)NC(=O)[C@H](CCCCN)NC(=O)[C@H](CC(C)C)NC(=O)[C@H](CC(C)C)NC(=O)CNC(=O)CCCCCCCCC)[C@@H](C)CC)[C@@H](C)O)C(N)=O)[C@@H](C)O)[C@@H](C)CC (I: Decanoyl-GLLKRIKTLLKK-NH2 / II: Decanoyl-GLLKRIKTLL / III: Decanoyl-GLLKRIKTLL; amide I:11-III:C, I:12-II:C)",–,32,128,128,32,56
"CC[C@H](C)[C@H](NC(=O)[C@H](CCCNC(=N)N)NC(=O)[C@H](CCCCN)NC(=O)[C@H](CC(C)C)NC(=O)[C@H](CC(C)C)NC(=O)CN)C(=O)N[C@@H](CCCCN)C(=O)N[C@H](C(=O)N[C@@H](CC(C)C)C(=O)N[C@@H](CC(C)C)C(=O)NCCCC[C@H](NC(=O)[C@H](CCCCNC(=O)[C@H](CC(C)C)NC(=O)[C@H](CC(C)C)NC(=O)[C@@H](NC(=O)[C@H](CCCCN)NC(=O)[C@@H](NC(=O)[C@H](CCCNC(=N)N)NC(=O)[C@H](CCCCN)NC(=O)[C@H](CC(C)C)NC(=O)[C@H](CC(C)C)NC(=O)CN)[C@@H](C)CC)[C@@H](C)O)NC(=O)[C@H](CC(C)C)NC(=O)[C@H](CC(C)C)NC(=O)[C@@H](NC(=O)[C@H](CCCCN)NC(=O)[C@@H](NC(=O)[C@H](CCCNC(=N)N)NC(=O)[C@H](CCCCN)NC(=O)[C@H](CC(C)C)NC(=O)[C@H](CC(C)C)NC(=O)CN)[C@@H](C)CC)[C@@H](C)O)C(N)=O)[C@@H](C)O (I: H-GLLKRIKTLLKK-NH2 / II: H-GLLKRIKTLL / III: H-GLLKRIKTLL; amide I:11-III:C, I:12-II:C)",2.53,–,–,–,–,–
"CCCCCC(=O)NCC(=O)N[C@@H](CC(C)C)C(=O)N[C@@H](CC(C)C)C(=O)N[C@@H](CCCCN)C(=O)N[C@@H](CCCNC(=N)N)C(=O)N[C@H](C(=O)N[C@@H](CCCCN)C(=O)N[C@H](C(=O)N[C@@H](CC(C)C)C(=O)N[C@@H](CC(C)C)C(=O)NCCCC[C@H](NC(=O)[C@H](CCCCNC(=O)[C@H](CC(C)C)NC(=O)[C@H](CC(C)C)NC(=O)[C@@H](NC(=O)[C@H](CCCCN)NC(=O)[C@@H](NC(=O)[C@H](CCCNC(=N)N)NC(=O)[C@H](CCCCN)NC(=O)[C@H](CC(C)C)NC(=O)[C@H](CC(C)C)NC(=O)CNC(=O)CCCCC)[C@@H](C)CC)[C@@H](C)O)NC(=O)[C@H](CC(C)C)NC(=O)[C@H](CC(C)C)NC(=O)[C@@H](NC(=O)[C@H](CCCCN)NC(=O)[C@@H](NC(=O)[C@H](CCCNC(=N)N)NC(=O)[C@H](CCCCN)NC(=O)[C@H](CC(C)C)NC(=O)[C@H](CC(C)C)NC(=O)CNC(=O)CCCCC)[C@@H](C)CC)[C@@H](C)O)C(N)=O)[C@@H](C)O)[C@@H](C)CC (I: Hexanoyl-GLLKRIKTLLKK-NH2 / II: Hexanoyl-GLLKRIKTLL / III: Hexanoyl-GLLKRIKTLL; amide I:11-III:C, I:12-II:C)",–,8,16,16,32,8
"CCCCCCCCCCCC(=O)NCC(=O)N[C@@H](CC(C)C)C(=O)N[C@@H](CC(C)C)C(=O)N[C@@H](CCCCN)C(=O)N[C@@H](CCCNC(=N)N)C(=O)N[C@H](C(=O)N[C@@H](CCCCN)C(=O)N[C@H](C(=O)N[C@@H](CC(C)C)C(=O)N[C@@H](CC(C)C)C(=O)NCCCC[C@H](NC(=O)[C@H](CCCCNC(=O)[C@H](CC(C)C)NC(=O)[C@H](CC(C)C)NC(=O)[C@@H](NC(=O)[C@H](CCCCN)NC(=O)[C@@H](NC(=O)[C@H](CCCNC(=N)N)NC(=O)[C@H](CCCCN)NC(=O)[C@H](CC(C)C)NC(=O)[C@H](CC(C)C)NC(=O)CNC(=O)CCCCCCCCCCC)[C@@H](C)CC)[C@@H](C)O)NC(=O)[C@H](CC(C)C)NC(=O)[C@H](CC(C)C)NC(=O)[C@@H](NC(=O)[C@H](CCCCN)NC(=O)[C@@H](NC(=O)[C@H](CCCNC(=N)N)NC(=O)[C@H](CCCCN)NC(=O)[C@H](CC(C)C)NC(=O)[C@H](CC(C)C)NC(=O)CNC(=O)CCCCCCCCCCC)[C@@H](C)CC)[C@@H](C)O)C(N)=O)[C@@H](C)O)[C@@H](C)CC (I: Lauroyl-GLLKRIKTLLKK-NH2 / II: Lauroyl-GLLKRIKTLL / III: Lauroyl-GLLKRIKTLL; amide I:11-III:C, I:12-II:C) [listing 2 of 2 here]",–,64,64,64,64,256
"CCCC(=O)NCC(=O)N[C@@H](CC(C)C)C(=O)N[C@@H](CC(C)C)C(=O)N[C@@H](CCCCN)C(=O)N[C@@H](CCCNC(=N)N)C(=O)N[C@H](C(=O)N[C@@H](CCCCN)C(=O)N[C@H](C(=O)N[C@@H](CC(C)C)C(=O)N[C@@H](CC(C)C)C(=O)NCCCC[C@H](NC(=O)[C@H](CCCCNC(=O)[C@H](CC(C)C)NC(=O)[C@H](CC(C)C)NC(=O)[C@@H](NC(=O)[C@H](CCCCN)NC(=O)[C@@H](NC(=O)[C@H](CCCNC(=N)N)NC(=O)[C@H](CCCCN)NC(=O)[C@H](CC(C)C)NC(=O)[C@H](CC(C)C)NC(=O)CNC(=O)CCC)[C@@H](C)CC)[C@@H](C)O)NC(=O)[C@H](CC(C)C)NC(=O)[C@H](CC(C)C)NC(=O)[C@@H](NC(=O)[C@H](CCCCN)NC(=O)[C@@H](NC(=O)[C@H](CCCNC(=N)N)NC(=O)[C@H](CCCCN)NC(=O)[C@H](CC(C)C)NC(=O)[C@H](CC(C)C)NC(=O)CNC(=O)CCC)[C@@H](C)CC)[C@@H](C)O)C(N)=O)[C@@H](C)O)[C@@H](C)CC (I: Butyryl-GLLKRIKTLLKK-NH2 / II: Butyryl-GLLKRIKTLL / III: Butyryl-GLLKRIKTLL; amide I:11-III:C, I:12-II:C)",–,2,4,4,4,4
"CCCCCCCC(=O)NCC(=O)N[C@@H](CC(C)C)C(=O)N[C@@H](CC(C)C)C(=O)N[C@@H](CCCCN)C(=O)N[C@@H](CCCNC(=N)N)C(=O)N[C@H](C(=O)N[C@@H](CCCCN)C(=O)N[C@H](C(=O)N[C@@H](CC(C)C)C(=O)N[C@@H](CC(C)C)C(=O)NCCCC[C@H](NC(=O)[C@H](CCCCNC(=O)[C@H](CC(C)C)NC(=O)[C@H](CC(C)C)NC(=O)[C@@H](NC(=O)[C@H](CCCCN)NC(=O)[C@@H](NC(=O)[C@H](CCCNC(=N)N)NC(=O)[C@H](CCCCN)NC(=O)[C@H](CC(C)C)NC(=O)[C@H](CC(C)C)NC(=O)CNC(=O)CCCCCCC)[C@@H](C)CC)[C@@H](C)O)NC(=O)[C@H](CC(C)C)NC(=O)[C@H](CC(C)C)NC(=O)[C@@H](NC(=O)[C@H](CCCCN)NC(=O)[C@@H](NC(=O)[C@H](CCCNC(=N)N)NC(=O)[C@H](CCCCN)NC(=O)[C@H](CC(C)C)NC(=O)[C@H](CC(C)C)NC(=O)CNC(=O)CCCCCCC)[C@@H](C)CC)[C@@H](C)O)C(N)=O)[C@@H](C)O)[C@@H](C)CC (I: Octanoyl-GLLKRIKTLLKK-NH2 / II: Octanoyl-GLLKRIKTLL / III: Octanoyl-GLLKRIKTLL; amide I:11-III:C, I:12-II:C)",–,32,32,32,128,32
